Experimental data taken from ChEMBL document CHEMBL1240349, “Influence of tigecycline on expression of virulence factors in biofilm-associated cells of methicillin-resistant Staphylococcus aureus” (2010).

What was measured:
Assay type in all cases: functional
Staphylococcus aureus [1] = assay: Increase in fnbB gene expression in biofilm-associated cells of epidemic methicillin-resistant Staphylococcus aureus isolate 16 at 4 times MIC incubated for 1 hr by whole genome microarray relative to untreated control
Staphylococcus aureus [2] = assay: Decrease in icaC gene expression in biofilm-associated cells of epidemic methicillin-resistant Staphylococcus aureus isolate 16 at 4 times MIC incubated for 1 hr by whole genome microarray relative to untreated control
Staphylococcus aureus [3] = assay: Decrease in capC gene expression in biofilm-associated cells of epidemic methicillin-resistant Staphylococcus aureus isolate 16 at 4 times MIC incubated for 1 hr by whole genome microarray relative to untreated control
Staphylococcus aureus [4] = assay: Increase in infA gene expression in biofilm-associated cells of epidemic methicillin-resistant Staphylococcus aureus isolate 16 at 4 times MIC incubated for 1 hr by whole genome microarray relative to untreated control
Staphylococcus aureus [5] = assay: Increase in rplJ gene expression in biofilm-associated cells of epidemic methicillin-resistant Staphylococcus aureus isolate 16 at 4 times MIC incubated for 1 hr by whole genome microarray relative to untreated control
Staphylococcus aureus [6] = assay: Increase in rplB gene expression in biofilm-associated cells of epidemic methicillin-resistant Staphylococcus aureus isolate 16 at 4 times MIC incubated for 1 hr by whole genome microarray relative to untreated control
Staphylococcus aureus [7] = assay: Increase in rplN gene expression in biofilm-associated cells of epidemic methicillin-resistant Staphylococcus aureus isolate 16 at 4 times MIC incubated for 1 hr by whole genome microarray relative to untreated control
Staphylococcus aureus [8] = assay: Decrease in icaC gene expression in biofilm-associated cells of epidemic methicillin-resistant Staphylococcus aureus isolate 16 at 4 times MIC incubated for 1 hr by RT-PCR relative to untreated control
Staphylococcus aureus [9] = assay: Decrease in capG expression in biofilm-associated cells of epidemic methicillin-resistant Staphylococcus aureus isolate 16-1 at 4 times MIC incubated for 1 hr by RT-PCR relative to untreated control
Staphylococcus aureus [10] = assay: Decrease in clpC expression in biofilm-associated cells of epidemic methicillin-resistant Staphylococcus aureus isolate 16-1 at 4 times MIC incubated for 1 hr by RT-PCR relative to untreated control
Staphylococcus aureus [11] = assay: Increase in mnhD gene expression in biofilm-associated cells of epidemic methicillin-resistant Staphylococcus aureus isolate 16 at 4 times MIC incubated for 1 hr by whole genome microarray relative to untreated control
Staphylococcus aureus [12] = assay: Increase in mnhG gene expression in biofilm-associated cells of epidemic methicillin-resistant Staphylococcus aureus isolate 16 at 4 times MIC incubated for 1 hr by whole genome microarray relative to untreated control
Staphylococcus aureus [13] = assay: Increase in mnhE gene expression in biofilm-associated cells of epidemic methicillin-resistant Staphylococcus aureus isolate 16 at 4 times MIC incubated for 1 hr by whole genome microarray relative to untreated control
Staphylococcus aureus [14] = assay: Increase in sarA gene expression in biofilm-associated cells of epidemic methicillin-resistant Staphylococcus aureus isolate 16 at 4 times MIC incubated for 1 hr by whole genome microarray relative to untreated control
Staphylococcus aureus [15] = assay: Decrease in mecI gene expression in biofilm-associated cells of epidemic methicillin-resistant Staphylococcus aureus isolate 16 at 4 times MIC incubated for 1 hr by whole genome microarray relative to untreated control
Staphylococcus aureus [16] = assay: Decrease in polA gene expression in biofilm-associated cells of epidemic methicillin-resistant Staphylococcus aureus isolate 16 at 4 times MIC incubated for 1 hr by whole genome microarray relative to untreated control
Staphylococcus aureus [17] = assay: Increase in topA gene expression in biofilm-associated cells of epidemic methicillin-resistant Staphylococcus aureus isolate 16 at 4 times MIC incubated for 1 hr by whole genome microarray relative to untreated control
Staphylococcus aureus [18] = assay: Increase in rpoC gene expression in biofilm-associated cells of epidemic methicillin-resistant Staphylococcus aureus isolate 16 at 4 times MIC incubated for 1 hr by whole genome microarray relative to untreated control
Staphylococcus aureus [19] = assay: Increase in nusG gene expression in biofilm-associated cells of epidemic methicillin-resistant Staphylococcus aureus isolate 16 at 4 times MIC incubated for 1 hr by whole genome microarray relative to untreated control
Staphylococcus aureus [20] = assay: Increase in dltB gene expression in biofilm-associated cells of epidemic methicillin-resistant Staphylococcus aureus isolate 16 at 4 times MIC incubated for 1 hr by whole genome microarray relative to untreated control
Staphylococcus aureus [21] = assay: Increase in cna gene expression in biofilm-associated cells of epidemic methicillin-resistant Staphylococcus aureus isolate 16 at 4 times MIC incubated for 1 hr by whole genome microarray relative to untreated control
Staphylococcus aureus [22] = assay: Increase in clfB gene expression in biofilm-associated cells of epidemic methicillin-resistant Staphylococcus aureus isolate 16 at 4 times MIC incubated for 1 hr by whole genome microarray relative to untreated control
Staphylococcus aureus [23] = assay: Increase in fnbB expression in biofilm-associated cells of epidemic methicillin-resistant Staphylococcus aureus isolate 16-1 at 4 times MIC incubated for 1 hr by RT-PCR relative to untreated control
Staphylococcus aureus [24] = assay: Decrease in icaC expression in biofilm-associated cells of epidemic methicillin-resistant Staphylococcus aureus isolate 16-1 at 4 times MIC incubated for 1 hr by RT-PCR relative to untreated control
Staphylococcus aureus [25] = assay: Increase in isaA expression in biofilm-associated cells of epidemic methicillin-resistant Staphylococcus aureus isolate 16-1 at 4 times MIC incubated for 1 hr by RT-PCR relative to untreated control
Staphylococcus aureus [26] = assay: Decrease in sasF expression in biofilm-associated cells of epidemic methicillin-resistant Staphylococcus aureus isolate 16-1 at 4 times MIC incubated for 1 hr by RT-PCR relative to untreated control
Staphylococcus aureus [27] = assay: Increase in ssaA expression in biofilm-associated cells of epidemic methicillin-resistant Staphylococcus aureus isolate 16-2 at 4 times MIC incubated for 1 hr by RT-PCR relative to untreated control
Staphylococcus aureus [28] = assay: Decrease in tst expression in biofilm-associated cells of epidemic methicillin-resistant Staphylococcus aureus isolate 16-2 at 4 times MIC incubated for 1 hr by RT-PCR relative to untreated control
Staphylococcus aureus [29] = assay: Decrease in capC expression in biofilm-associated cells of epidemic methicillin-resistant Staphylococcus aureus isolate 15 at 4 times MIC incubated for 1 hr by RT-PCR relative to untreated control
Staphylococcus aureus [30] = assay: Decrease in clpC expression in biofilm-associated cells of epidemic methicillin-resistant Staphylococcus aureus isolate 15 at 4 times MIC incubated for 1 hr by RT-PCR relative to untreated control
Staphylococcus aureus [31] = assay: Increase in ssaA expression in biofilm-associated cells of epidemic methicillin-resistant Staphylococcus aureus isolate 15 at 4 times MIC incubated for 1 hr by RT-PCR relative to untreated control

SMILES: CN(C)c1cc(NC(=O)CNC(C)(C)C)c(O)c2c1C[C@H]1C[C@H]3[C@H](N(C)C)C(O)=C(C(N)=O)C(=O)[C@@]3(O)C(O)=C1C2=O [TIGECYCLINE]
- fold change (FC) (Staphylococcus aureus [1]): 5.34
- fold change (FC) (Staphylococcus aureus [2]): 2.06
- fold change (FC) (Staphylococcus aureus [3]): 3.14
- fold change (FC) (Staphylococcus aureus [4]): 4.77
- fold change (FC) (Staphylococcus aureus [5]): 12.75
- fold change (FC) (Staphylococcus aureus [6]): 13.38
- fold change (FC) (Staphylococcus aureus [7]): 13.76
- fold change (FC) (Staphylococcus aureus [8]): 2.23
- fold change (FC) (Staphylococcus aureus [9]): 1.01
- fold change (FC) (Staphylococcus aureus [10]): 1.14
- fold change (FC) (Staphylococcus aureus [11]): 1.93
- fold change (FC) (Staphylococcus aureus [12]): 2.85
- fold change (FC) (Staphylococcus aureus [13]): 3.15
- fold change (FC) (Staphylococcus aureus [14]): 2.37
- fold change (FC) (Staphylococcus aureus [15]): 2.39
- fold change (FC) (Staphylococcus aureus [16]): 2.11
- fold change (FC) (Staphylococcus aureus [17]): 2.26
- fold change (FC) (Staphylococcus aureus [18]): 3.28
- fold change (FC) (Staphylococcus aureus [19]): 4.34
- fold change (FC) (Staphylococcus aureus [20]): 2.02
- fold change (FC) (Staphylococcus aureus [21]): 2.1
- fold change (FC) (Staphylococcus aureus [22]): 4
- fold change (FC) (Staphylococcus aureus [23]): 3.03
- fold change (FC) (Staphylococcus aureus [24]): 2.23
- fold change (FC) (Staphylococcus aureus [25]): 7.68
- fold change (FC) (Staphylococcus aureus [26]): 1.32
- fold change (FC) (Staphylococcus aureus [27]): 1.72
- fold change (FC) (Staphylococcus aureus [28]): 5.52
- fold change (FC) (Staphylococcus aureus [29]): 1.64
- fold change (FC) (Staphylococcus aureus [30]): 1.23
- fold change (FC) (Staphylococcus aureus [31]): 1.17
